Source: the supplement of paper PMC10307832

What was measured:
Assay in all cases: relative viability (nuclei count vs DMSO), 5 days (fraction); higher = more cells survive
PC-14 = tested on: PC-14
Method in brief: (§1)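 Values are medians from duplicate plates. Each reflects relative viability, defined as the nuclei count of treated wells over that of vehicle wells. Lung cancer cell lines in 1536-well plates were pin-tool dosed one day after seeding with one drug alone or with a fixed anchor-drug dose plus five library-drug doses (not always all listed) in √10 steps, then fixed, stained and imaged at 4× after 5 days.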

NCI-H1734 = tested on: NCI-H1734
Method in brief: as §1

COR-L23 = tested on: COR-L23
Method in brief: as §1

NCI-H2405 = tested on: NCI-H2405
Method in brief: as §1

NCI-H1650 = tested on: NCI-H1650
Method in brief: as §1

NCI-H1563 = tested on: NCI-H1563
Method in brief: as §1

NCI-H520 = tested on: NCI-H520
Method in brief: as §1

NCI-H661 = tested on: NCI-H661
Method in brief: as §1

RERF-LC-KJ = tested on: RERF-LC-KJ
Method in brief: as §1

NCI-H2342 = tested on: NCI-H2342
Method in brief: as §1

NCI-H1355 = tested on: NCI-H1355
Method in brief: as §1

NCI-H322M = tested on: NCI-H322M
Method in brief: as §1

PC-3 [JPC-3] = tested on: PC-3 [JPC-3]
Method in brief: as §1

CAL-12T = tested on: CAL-12T
Method in brief: as §1

ABC-1 = tested on: ABC-1
Method in brief: as §1

HCC-827 = tested on: HCC-827
Method in brief: as §1

EKVX = tested on: EKVX
Method in brief: as §1

NCI-H1437 = tested on: NCI-H1437
Method in brief: as §1

SW 1573 = tested on: SW 1573
Method in brief: as §1

LK-2 = tested on: LK-2
Method in brief: as §1

H3255 = tested on: H3255
Method in brief: as §1

HCC-15 = tested on: HCC-15
Method in brief: as §1

NCI-H2228 = tested on: NCI-H2228
Method in brief: as §1

Structure (SMILES): NC(=O)Nc1cc(-c2cccc(F)c2)sc1C(=O)N[C@H]1CCCNC1 [AZD7762] + CCNC(=O)c1noc(-c2cc(C(C)C)c(O)cc2O)c1-c1ccc(CN2CCOCC2)cc1 [Luminespib] (partner 0.01 µM)
- relative viability (PC-14; first compound 0.01 µM): 0.162
- relative viability (PC-14; first compound 0.03162 µM): 0.199
- relative viability (PC-14; first compound 0.1 µM): 0.16
- relative viability (PC-14; first compound 0.3162 µM): 0.118
- relative viability (PC-14; first compound 1 µM): 0.136
- relative viability (NCI-H1734; first compound 0.01 µM): 0.219
- relative viability (NCI-H1734; first compound 0.03162 µM): 0.219
- relative viability (NCI-H1734; first compound 0.1 µM): 0.146
- relative viability (NCI-H1734; first compound 0.3162 µM): 0.162
- relative viability (NCI-H1734; first compound 1 µM): 0.157
- relative viability (COR-L23; first compound 0.01 µM): 0.687
- relative viability (COR-L23; first compound 0.03162 µM): 0.653
- relative viability (COR-L23; first compound 0.1 µM): 0.568
- relative viability (COR-L23; first compound 0.3162 µM): 0.216
- relative viability (COR-L23; first compound 1 µM): 0.117
- relative viability (NCI-H2405; first compound 0.01 µM): 0.823
- relative viability (NCI-H2405; first compound 0.03162 µM): 0.707
- relative viability (NCI-H2405; first compound 0.1 µM): 0.784
- relative viability (NCI-H2405; first compound 0.3162 µM): 0.672
- relative viability (NCI-H2405; first compound 1 µM): 0.33
- relative viability (NCI-H1650; first compound 0.01 µM): 0.191
- relative viability (NCI-H1650; first compound 0.03162 µM): 0.175
- relative viability (NCI-H1650; first compound 0.1 µM): 0.22
- relative viability (NCI-H1650; first compound 0.3162 µM): 0.186
- relative viability (NCI-H1650; first compound 1 µM): 0.192
- relative viability (NCI-H1563; first compound 0.01 µM): 0.524
- relative viability (NCI-H1563; first compound 0.03162 µM): 0.507
- relative viability (NCI-H1563; first compound 0.1 µM): 0.523
- relative viability (NCI-H1563; first compound 0.3162 µM): 0.505
- relative viability (NCI-H1563; first compound 1 µM): 0.475
- relative viability (NCI-H520; first compound 0.01 µM): 0.208
- relative viability (NCI-H520; first compound 0.03162 µM): 0.191
- relative viability (NCI-H520; first compound 0.1 µM): 0.238
- relative viability (NCI-H520; first compound 0.3162 µM): 0.254
- relative viability (NCI-H520; first compound 1 µM): 0.234
- relative viability (NCI-H661; first compound 0.01 µM): 1.01
- relative viability (NCI-H661; first compound 0.03162 µM): 1
- relative viability (NCI-H661; first compound 0.1 µM): 1.02
- relative viability (NCI-H661; first compound 0.3162 µM): 0.971
- relative viability (NCI-H661; first compound 1 µM): 0.417
- relative viability (RERF-LC-KJ; first compound 0.01 µM): 1.41
- relative viability (RERF-LC-KJ; first compound 0.03162 µM): 1.38
- relative viability (RERF-LC-KJ; first compound 0.1 µM): 1.21
- relative viability (RERF-LC-KJ; first compound 0.3162 µM): 1.2
- relative viability (RERF-LC-KJ; first compound 1 µM): 1.02
- relative viability (NCI-H2342; first compound 0.01 µM): 0.69
- relative viability (NCI-H2342; first compound 0.03162 µM): 0.696
- relative viability (NCI-H2342; first compound 0.1 µM): 0.731
- relative viability (NCI-H2342; first compound 0.3162 µM): 0.819
- relative viability (NCI-H2342; first compound 1 µM): 0.676
- relative viability (NCI-H1355; first compound 0.01 µM): 0.709
- relative viability (NCI-H1355; first compound 0.03162 µM): 0.751
- relative viability (NCI-H1355; first compound 0.1 µM): 0.812
- relative viability (NCI-H1355; first compound 0.3162 µM): 0.717
- relative viability (NCI-H1355; first compound 1 µM): 0.581
- relative viability (NCI-H322M; first compound 0.01 µM): 0.851
- relative viability (NCI-H322M; first compound 0.03162 µM): 0.827
- relative viability (NCI-H322M; first compound 0.1 µM): 0.357
- relative viability (NCI-H322M; first compound 0.3162 µM): 0.248
- relative viability (NCI-H322M; first compound 1 µM): 0.245
- relative viability (PC-3 [JPC-3]; first compound 0.01 µM): 0.735
- relative viability (PC-3 [JPC-3]; first compound 0.03162 µM): 0.67
- relative viability (PC-3 [JPC-3]; first compound 0.1 µM): 0.702
- relative viability (PC-3 [JPC-3]; first compound 0.3162 µM): 0.713
- relative viability (PC-3 [JPC-3]; first compound 1 µM): 0.673
- relative viability (CAL-12T; first compound 0.01 µM): 0.331
- relative viability (CAL-12T; first compound 0.03162 µM): 0.397
- relative viability (CAL-12T; first compound 0.1 µM): 0.17
- relative viability (CAL-12T; first compound 0.3162 µM): 0.147
- relative viability (CAL-12T; first compound 1 µM): 0.223
- relative viability (ABC-1; first compound 0.01 µM): 0.545
- relative viability (ABC-1; first compound 0.03162 µM): 0.787
- relative viability (ABC-1; first compound 0.1 µM): 0.361
- relative viability (ABC-1; first compound 0.3162 µM): 0.374
- relative viability (ABC-1; first compound 1 µM): 0.305
- relative viability (HCC-827; first compound 0.01 µM): 0.598
- relative viability (HCC-827; first compound 0.03162 µM): 0.677
- relative viability (HCC-827; first compound 0.1 µM): 0.604
- relative viability (HCC-827; first compound 0.3162 µM): 0.459
- relative viability (HCC-827; first compound 1 µM): 0.213
- relative viability (EKVX; first compound 0.01 µM): 0.827
- relative viability (EKVX; first compound 0.03162 µM): 0.88
- relative viability (EKVX; first compound 0.1 µM): 0.826
- relative viability (EKVX; first compound 0.3162 µM): 0.82
- relative viability (EKVX; first compound 1 µM): 0.65
- relative viability (NCI-H1437; first compound 0.01 µM): 1.17
- relative viability (NCI-H1437; first compound 0.03162 µM): 1.18
- relative viability (NCI-H1437; first compound 0.1 µM): 1.2
- relative viability (NCI-H1437; first compound 0.3162 µM): 1.13
- relative viability (NCI-H1437; first compound 1 µM): 0.79
- relative viability (SW 1573; first compound 0.01 µM): 0.885
- relative viability (SW 1573; first compound 0.03162 µM): 0.272
- relative viability (SW 1573; first compound 0.1 µM): 0.166
- relative viability (SW 1573; first compound 0.3162 µM): 0.169
- relative viability (SW 1573; first compound 1 µM): 0.161
- relative viability (LK-2; first compound 0.01 µM): 0.198
- relative viability (LK-2; first compound 0.03162 µM): 0.155
- relative viability (LK-2; first compound 0.1 µM): 0.215
- relative viability (LK-2; first compound 0.3162 µM): 0.164
- relative viability (LK-2; first compound 1 µM): 0.167
- relative viability (H3255; first compound 0.01 µM): 1.02
- relative viability (H3255; first compound 0.03162 µM): 0.982
- relative viability (H3255; first compound 0.1 µM): 0.975
- relative viability (H3255; first compound 0.3162 µM): 0.913
- relative viability (H3255; first compound 1 µM): 0.962
- relative viability (HCC-15; first compound 0.01 µM): 0.309
- relative viability (HCC-15; first compound 0.03162 µM): 0.304
- relative viability (HCC-15; first compound 0.1 µM): 0.234
- relative viability (HCC-15; first compound 0.3162 µM): 0.163
- relative viability (HCC-15; first compound 1 µM): 0.315
- relative viability (NCI-H2228; first compound 0.01 µM): 0.139
- relative viability (NCI-H2228; first compound 0.03162 µM): 0.162
- relative viability (NCI-H2228; first compound 0.1 µM): 0.165
- relative viability (NCI-H2228; first compound 0.3162 µM): 0.133
- relative viability (NCI-H2228; first compound 1 µM): 0.125
